In patent US12133486B2, “Methods of propagation of arbuscular mycorrhizal fungi (AMF) and uses thereof” (Terra Microbes, LLC, priority 2021, dated 2024):

Test system: AM fungi
Experiment: Field plot study: AMF spore counts in soil around western wheatgrass roots
Format: in vivo
Settings: field plots; for Total Spores t = 47 days / Total Spores t = 0 days: mean n = 3, P added at 120 kg/ha (KCl: same K); for Total Spores t = 47 days / spore numbers compared with the control: second sampling; for Total Spores t = 0 days: t = 0 = first sampling, 14 days after treatment; for spore numbers compared with the control: t = 47
Description: Twelve plots of size 50 cm by 50 cm were established on a homogenous site 2.54 meters (running northeast and southwest) by 4.06 meters (running southeast and northwest). Plant distribution was mostly homogeneous across the entire site, with western wheatgrass dominant. The plots were in four rows with three plots in each row. Within a row plots were 25 cm apart. Rows were 50 cm apart. An experimental unit was one plot. Treatments were replicated three times. Treatments included: controls (no treatment), potassium chloride treatment, potassium phosphate treatment, and potassium phosphite treatment. (See, FIG. 2).
In this study phosphorus, either as phosphate or phosphite, was added at a rate of 120 kg of P per hectare (ha). Scaled down this equates to 3 grams of phosphorous per plot. One ha is 10,000 m^2. Each plot is 50 cm by 50 cm, or 0.25 m^2. The subsequent calculation then is 120 Kg/10,000 m^2=X/0.25 m^2; X=3.00 grams of P per plot. (See Table 2).
Treatments: All plots received the same amount of solution. The control plots were treated with distilled water only (6.375 L). The KCl plots treated with distilled water containing the same amount of K as was needed to convert the phosphorous acid (H3PO3) to dipotassium phosphite (K2HPO3). The phosphate plots were treated with sufficient dipotassium phosphate (K2HPO4) to deliver 3 g of P per plot dissolved in the same amount of distilled water as the control plots received and the KCl plots received. The phosphite plots were treated with sufficient dipotassium phosphite (K2HPO3) to deliver 3 g of P per plot dissolved in the same amount of distilled water as the control plots received, the KCl plots received and the phosphate plots received.
The field experiment reported in this example was conducted during June through October. Plots were established during early June and treated on the 15th and 16th day (as in Example 3 above). The first soil and root sampling was performed 14 days later (t=14). The second set of samples were taken 47 days later (t=61), and the third set 60 days later (t=121 days). Sample size and depth was as detailed above in Example 3.
AMF spores were evaluated in soil samples from which plant roots including plant roots of western wheatgrass had existed and had been removed. Evaluations were performed on the T=0 and the T=47 samples. These evaluations generally entailed mixing the sample with water, centrifugation, and decanting water. This step was performed to remove light organic matter and other light materials, e.g., leaf fragments. This was followed by mixing the soil with a solution of sodium hexametaphosphate (2%) in 2 M sucrose. Centrifugation results in the spores floating on the sucrose solution or suspended in it. The sucrose solution plus spores is decanted into a separatory funnel. The suspension was allowed to exit the funnel one drop at a time. The spores adhere to the inside of the funnel and once all liquid has exited the funnel the spores are washed into a petri-dish and counted under a dissecting microscope.
The specific protocol for spore extraction was as follows: • A) Weigh 5 g of air dried soil into a 20 ml centrifuge tube. For a complete sample this is replicated four times. • B) Fill each tube with water to ˜1.5 cm of the top. Stir to suspend organic matter and other light debris. Let all tubes stand for 10 minutes. • C) Centrifuge at 2000 rpm (475.2×g) for 10 minutes. Be sure tubes are placed across from each other in the centrifuge and are within 0.1 g of the same weight. • D) Pour off and discard supernatant while stirring surface and rotating tube. • E) If much organic matter and other light material remains, repeat steps B through D. • F) Add sucrose/sodium hexametaphosphate solution (2 molar sucrose containing 2% hexametaphosphate: 684.6 g of sucrose (store grade is adequate) and 20 g of sodium hexametaphosphate in one liter of solution using distilled water) to centrifuge tubes to ˜1.5 cm of top. […]

SMILES	Total Spores t = 47 days [Ab Per 100 g soil]	Total Spores t = 47 days (listed as phosphite)	Total Spores t = 0 days [Aa Per 100 g soil]	spore numbers compared with the control
OP(O)O [PO3, dipotassium phosphite]	17896	17,896 Per 100 g soil	6429	significant increase in spore numbers from the control
O=P([O-])([O-])O.[K+].[K+] [PO4, dipotassium phosphate]	12960	–	4998	significant increase in spore numbers from the control
